In US4118424A, “Biodegradable insecticides” (priority 1976, dated 1978):
≈ marks a conversion by molar mass, not a printed value.

What was measured:
[1] = tested on: Musca domestica Rsp strain; test: Insect toxicity, Musca domestica Rsp strain, DDT-resistant; assay type: in vivo; conditions: for LD50: Musca domestica, without PB; for Musca domestica Rsp strain w/PB LD50: with PB
[2] = tested on: Musca domestica (NAIDM strain); test: Insect toxicity, Musca domestica NAIDM strain; assay type: in vivo; conditions: for LD50: Musca domestica, without PB; for Musca domestica NAIDM (w/PB) LD50: with PB
[3] = tested on: Anopheles albimanus larvae; test: Insect toxicity, Anopheles albimanus larvae; assay type: in vivo
[4] = tested on: Anopheles albimanus adults; test: Insect toxicity, Anopheles albimanus adults; assay type: in vivo
Culex fatigans adults = test: Insect toxicity, Culex fatigans adults; assay type: in vivo
[5] = tested on: insects (flies and mosquitoes); test: Insecticidal activity, general statement; assay type: in vivo; conditions: versus ethoxychlor
Source text: Metabolic studies involving insects, mice, and fish and a model ecosystem (such as described in U.S. Pat. No. 3,787,505) and insecticidal activity studies generally involving flies and mosquitoes have shown that both the symmetrical and the asymmetrical compounds of the present invention are effective. Thus, the new compounds can be represented by the general formula: [drawing 3] where R1 is H or Cl and R2 is CH3 or Cl, X and X^1 are the same or different and each is selected from the group consisting of C1 to C3 alkyl groups and C1 to C4 alkoxy groups.

Phormia regina = test: Insect toxicity, Phormia regina; assay type: in vivo
Culex fatigans = test: Persistence on plywood surfaces of test huts, Culex fatigans; assay type: in vivo; conditions: adult mosquitoes
Protocol: (§1) The persistence of some of the compounds of the present invention was evaluated and compared with that of ethoxychlor. In these tests, the compounds were applied to the plywood surfaces of test huts and the mortalities of adult mosquitoes contained in the huts were measured to determine the number of weeks that 50% mortality continued to occur.

Culex fatigans larvae = test: Insect toxicity, Culex fatigans larvae; assay type: in vivo; conditions: Culex quinquefasciatus
Anopheles albimanus = test: Persistence on plywood surfaces of test huts, Anopheles albimanus; assay type: in vivo; conditions: adult mosquitoes
Protocol: as §1

[6] = tested on: green sunfish (Lepomis cyanellus); test: Green sunfish toxicity over a period of time; assay type: in vivo; conditions: initial concentration 0.1 ppm
Source text: The compounds of Example III, V, XI, XIV and XXI were further tested and compared with ethoxychlor to determine fish toxicities over a period of time. In these tests, green sunfish (Lepomis cyanellus) were subject to an initial concentration dosage of 0.1 ppm and the number of days that 100 percent mortalities occurred was observed.

mice = test: Mouse toxicity, LD50; assay type: in vivo; conditions: versus ethoxychlor
Mouse toxicity, LD50 = assay type: in vivo, mice; conditions: in vivo

## CCOc1ccc(C(c2ccc(OCC)cc2)C(C)C)cc1 [Example XI]
[1]
  LD50: 38 mg/kg
  Musca domestica Rsp strain w/PB LD50: 12.5 µg/g
[2]
  LD50: 21.5 mg/kg
  Musca domestica NAIDM (w/PB) LD50: 3.5 µg/g
[3]
  LC50: 0.028 µg/mL (≈ 0.0938 µM)
[4]
  Anopheles albimanus adults LC50: 4.5 ug/cm^2
Culex fatigans adults
  Culex fatigans adults-LC50: 14.3 ug/cm^2
[5]
  insecticidal activity relative to ethoxychlor: at least generally comparable to ethoxychlor
Phormia regina
  LD50: 14.5 mg/kg
Culex fatigans
  Culex fatigans, P50 (number of weeks that at least 50% mortality occurred): 40 weeks
Culex fatigans larvae
  LC50: 0.08 µg/mL (≈ 0.268 µM)
Anopheles albimanus
  Anopheles albimanus, P50 (number of weeks that at least 50% mortality occurred): > 44 weeks
[6]
  Number of days 100% mortality: > 35 days
mice
  safety to mice relative to ethoxychlor: at least five times safer to mice than is ethoxychlor
Mouse toxicity, LD50
  LD50: ≥ 1000 mg/kg

## CCOc1ccc(C(c2ccc(OCC)cc2)C(C)Cl)cc1 (stereo not drawn) [V]
[1]
  LD50: 18 mg/kg
  Musca domestica Rsp strain w/PB LD50: 4.9 µg/g
[2]
  LD50: 9.5 mg/kg
  Musca domestica NAIDM (w/PB) LD50: 2 µg/g
[3]
  LC50: 0.047 µg/mL (≈ 0.147 µM)
[4]
  Anopheles albimanus adults LC50: 7.9 ug/cm^2
Culex fatigans adults
  Culex fatigans adults-LC50: 56 ug/cm^2
[5]
  insecticidal activity relative to ethoxychlor: at least generally comparable to ethoxychlor
Phormia regina
  LD50: 4.62 mg/kg
Culex fatigans
  Culex fatigans, P50 (number of weeks that at least 50% mortality occurred): > 70 weeks
Culex fatigans larvae
  LC50: 0.054 µg/mL (≈ 0.169 µM)
Anopheles albimanus
  Anopheles albimanus, P50 (number of weeks that at least 50% mortality occurred): > 80 weeks
[6]
  Number of days 100% mortality: 4 days
mice
  safety to mice relative to ethoxychlor: at least five times safer to mice than is ethoxychlor
Mouse toxicity, LD50
  LD50: ≥ 1000 mg/kg

## CCOc1ccc(C(c2ccc(C)cc2)C(C)C)cc1 (stereo not drawn) [XIV]
[1]
  LD50: 150 mg/kg
  Musca domestica Rsp strain w/PB LD50: 31 µg/g
[2]
  LD50: 70 mg/kg
  Musca domestica NAIDM (w/PB) LD50: 18 µg/g
[3]
  LC50: 0.275 µg/mL (≈ 1.02 µM)
[4]
  Anopheles albimanus adults LC50: 5 ug/cm^2
Culex fatigans adults
  Culex fatigans adults-LC50: 5.0 ug/cm^2
[5]
  insecticidal activity relative to ethoxychlor: at least generally comparable to ethoxychlor
Phormia regina
  LD50: 35 mg/kg
Culex fatigans
  Culex fatigans, P50 (number of weeks that at least 50% mortality occurred): 4 weeks
Culex fatigans larvae
  LC50: 0.052 µg/mL (≈ 0.194 µM)
Anopheles albimanus
  Anopheles albimanus, P50 (number of weeks that at least 50% mortality occurred): 6 weeks
[6]
  Number of days 100% mortality: 0 days
mice
  safety to mice relative to ethoxychlor: at least five times safer to mice than is ethoxychlor
Mouse toxicity, LD50
  LD50: ≥ 1000 mg/kg

## CCOc1ccc(C(c2ccc(C)cc2)C(C)Cl)cc1 (stereo not drawn) [Example III]
[1]
  LD50: 95 mg/kg
  Musca domestica Rsp strain w/PB LD50: 14 µg/g
[2]
  LD50: 39 mg/kg
  Musca domestica NAIDM (w/PB) LD50: 10 µg/g
[3]
  LC50: 0.09 µg/mL (≈ 0.312 µM)
[4]
  Anopheles albimanus adults LC50: 1.1 ug/cm^2
Culex fatigans adults
  Culex fatigans adults-LC50: 10 ug/cm^2
[5]
  insecticidal activity relative to ethoxychlor: at least generally comparable to ethoxychlor
Phormia regina
  LD50: 6.75 mg/kg
Culex fatigans
  Culex fatigans, P50 (number of weeks that at least 50% mortality occurred): > 8 weeks
Culex fatigans larvae
  LC50: 0.08 µg/mL (≈ 0.277 µM)
Anopheles albimanus
  Anopheles albimanus, P50 (number of weeks that at least 50% mortality occurred): > 6 weeks
[6]
  Number of days 100% mortality: 0 days
mice
  safety to mice relative to ethoxychlor: at least five times safer to mice than is ethoxychlor
Mouse toxicity, LD50
  LD50: ≥ 1000 mg/kg
